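96-well plates; 48 h exposure; 5 concentrations. Endpoints by linear interpolation between flanking doses. Not reached: highest tested concentration assigned. GI50 marks 50% less growth. TGI marks complete inhibition of growth.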

This passage reports GI50 and TGI results from PubChem BioAssay (NCI).

Experiment in all cases: DTP human tumour cell line panel, 48 h
The subject of assay [1] is TK-10 renal.
Assay [2] deals with K-562 leukemia.
For assay [3], the system named is HCT-116 colon.
Assay [4] deals with U251 CNS.
For assay [5], the system named is KM12 colon.
Assay [6] concerns SF-268 CNS.
Assay [7] relates to HOP-62 NSCLC.
The test system of assay [8] is PC-3 prostate.
Assay [9] concerns MCF7 breast.
In assay [10] the test system is UO-31 renal.

In the case of `COc1ccc2c(c1)C(=O)c1c-2c(N(C)C)nc2ccccc12`, the GI50 in assay [1] was 88.9 µM; in assay [2], greater than 100000 nM; in assay [3] it was greater than 100000 nM; in assay [4], greater than 100000 nM; in assay [5], greater than 100 µM; in assay [6], 77.8 µM. The GI50 in assay [7], in assay [8], in assay [9] and in assay [10] was greater than 100000 nM throughout. Moreover, the TGI in [1], in [2], in assay [3], in assay [4], in assay [5] and in assay [6] was greater than 100 µM each time. Moreover, the TGI in [7], in [8], in assay [9] and in assay [10] was greater than 100 µM each time.
Regarding `CCCCN(CCCC)c1ccc(C(=N)c2ccc(N(CCCC)CCCC)cc2)cc1`, the GI50 in assay [1] is 0.453 µM; in [2], 287 nM; in [3], 339 nM; in [4], 351 nM; in [5] it was 0.334 µM; in assay [6], 0.679 µM. Also, the GI50 in assay [7] is 748 nM; in assay [8], 296 nM; in assay [9] it was 389 nM; in [10], 320 nM. The TGI in assay [1] turned out to be 1.53 µM; in assay [2], 1.1 µM; in assay [3], 1.31 µM; in [4], 1.28 µM; in assay [5], 1.25 µM; in assay [6], 1.93 µM. In addition, the TGI in assay [7] turned out to be 2.11 µM; in assay [8], 1.03 µM; in assay [9] it was 1.44 µM; in assay [10], 1.38 µM.
Regarding `COc1ccc(C(=O)c2cc3c(N)c(C(=O)Nc4cccc5ccccc45)sc3nc2C)cc1`, the GI50 in assay [1] was greater than 50 µM; in assay [2] it was 163 nM; in [3], 180 nM; in assay [4], 194 nM; in [5] it was 0.215 µM; in [6], 0.529 µM. In addition, the GI50 is 314 nM in assay [7], 212 nM in assay [8], 191 nM in assay [9] and 422 nM in assay [10]. Besides, the TGI in [1] is greater than 50 µM; in assay [2], greater than 50 µM; in [3], greater than 18.9 µM; in [4] it was greater than 50 µM; in assay [5] it was greater than 50 µM; in assay [6], greater than 50 µM. For the same compound, the TGI in assay [7], in assay [8], in [9] and in [10] was greater than 50 µM each time.
Regarding `Nc1[nH]nc2nc(-c3cccs3)cc(C(F)(F)F)c12`, the GI50 in [1] was greater than 19.2 µM; in assay [2], greater than 25000 nM; in [3], greater than 17900 nM; in assay [4] it was greater than 23700 nM; in [5], 12 µM; in assay [6], greater than 25 µM. Also, the GI50 in [7] was greater than 25000 nM; in [8] it was greater than 25000 nM; in assay [9], greater than 15800 nM; in assay [10], greater than 25000 nM. The TGI in assay [1], in [2], in [3], in assay [4], in assay [5] and in assay [6] was greater than 25 µM throughout. The TGI in assay [7], in [8], in assay [9] and in assay [10] was greater than 25 µM in each case.
As for `O=C(Nc1ccc(Cl)cc1)Nc1ccc(Nc2nncc3ccccc23)cc1`, the GI50 was 5.03 µM in assay [1]; 1680 nM in assay [2]; 2460 nM in [3]; 2860 nM in assay [4]; 1.47 µM in assay [5]; 3.19 µM in [6]. Moreover, the GI50 in [7] was 3000 nM; in [8] it was 2320 nM; in assay [9] it was 1430 nM; in [10], 1900 nM. Moreover, the TGI in [1] stood at 24.4 µM; in [2], 26.4 µM; in assay [3] it was 12 µM; in assay [4], 10.3 µM; in [5], 11.4 µM; in assay [6] it was 28.1 µM. The TGI in assay [7] turned out to be 14.9 µM; in assay [8] it was 11 µM; in assay [9], 8.33 µM; in assay [10], 15.8 µM.
Regarding `O=C1c2ccccc2-c2c1c1ccccc1c(=O)n2CCN1CCOCC1`, the GI50 is 84.8 µM in assay [1]; 25800 nM in [2]; 36000 nM in assay [3]; 52400 nM in assay [4]; 61.8 µM in [5]; greater than 100 µM in assay [6]. Also, the GI50 was greater than 100000 nM in assay [7], greater than 100000 nM in assay [8], 43700 nM in assay [9] and 64400 nM in assay [10]. The total growth inhibition concentration (TGI) in assay [1] was greater than 100 µM; in assay [2], 73.5 µM; in [3], greater than 100 µM; in [4], greater than 100 µM; in [5] it was greater than 100 µM; in assay [6] it was greater than 100 µM. In addition, the TGI in [7], in assay [8], in assay [9] and in [10] was greater than 100 µM in each case.
As to `COc1ccc(C2SC(C)C(=O)N2NC(=O)C(O)c2ccccc2)cc1OC` (stereo not given), the GI50 is greater than 100 µM in [1]; greater than 100000 nM in assay [2]; greater than 100000 nM in assay [3]; greater than 100000 nM in [4]; greater than 100 µM in [5]; greater than 100 µM in assay [6]. Also, the GI50 in assay [7], in [8], in assay [9] and in assay [10] was greater than 100000 nM each time. For the same compound, the TGI in [1], in assay [2], in assay [3], in assay [4], in assay [5] and in [6] was greater than 100 µM each time. The TGI in assay [7], in assay [8], in [9] and in assay [10] was greater than 100 µM in each case.

What is called GI50 is the concentration that inhibits growth by half. Broadly, the TGI is the concentration at which net growth stops.
